Results taken from patent publication US8492589B2, “Alkynyl phenyl derivative compounds for treating ophthalmic diseases and disorders” (Acucela Inc., priority 2007, dated 2013).

Target: T1, visual cycle isomerase (Bovine RPE microsome membranes) (Bos taurus, UniProt Q28175)
T1 construct: Bovine Retinal Pigment Epithelium (RPE) microsome membranes were the source of a visual cycle isomerase; from tissue; host or cells: bovine retinal pigment epithelium microsome membranes
T1 sequence (Q28175 2-533 limits assumed): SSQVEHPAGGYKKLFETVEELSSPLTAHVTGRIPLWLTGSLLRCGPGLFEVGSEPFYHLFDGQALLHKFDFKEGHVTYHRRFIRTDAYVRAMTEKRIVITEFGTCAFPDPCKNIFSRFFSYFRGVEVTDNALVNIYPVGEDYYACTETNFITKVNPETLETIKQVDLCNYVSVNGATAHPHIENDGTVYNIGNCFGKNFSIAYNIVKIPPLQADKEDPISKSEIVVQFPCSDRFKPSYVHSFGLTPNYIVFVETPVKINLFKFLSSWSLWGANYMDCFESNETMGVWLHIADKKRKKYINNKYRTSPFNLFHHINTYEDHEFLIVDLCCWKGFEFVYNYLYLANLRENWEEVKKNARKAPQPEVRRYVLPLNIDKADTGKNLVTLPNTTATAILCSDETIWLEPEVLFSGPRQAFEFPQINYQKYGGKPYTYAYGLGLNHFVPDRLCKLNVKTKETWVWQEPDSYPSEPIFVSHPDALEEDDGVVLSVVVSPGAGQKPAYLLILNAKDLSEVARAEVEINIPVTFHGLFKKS
Test: In vitro isomerase inhibition assay, bovine RPE microsome membranes
Type: biochemical
Settings: bovine RPE microsomes; 11-cis retinol formation
Protocol: The capability of alkynyl phenyl-linked amine derivative compounds to inhibit the activity of a visual cycle isomerase was determined.
Bovine Retinal Pigment Epithelium (RPE) microsome membranes were the source of a visual cycle isomerase.
Crude RPE microsome extracts were thawed in a 37° C. water bath, and then immediately placed on ice. 50 ml crude RPE microsomes were placed into a 50 ml Teflon-glass homogenizer (Fisher Scientific, catalog no. 0841416M) on ice, powered by a hand-held DeWalt drill, and homogenized ten times up and down on ice under maximum speed. This process was repeated until the crude RPE microsome solution was homogenized. The homogenate was then subjected to centrifugation (50.2 Ti rotor (Beckman, Fullerton, Calif.), 13,000 RPM; 15360 Rcf) for 15 minutes at 4° C. The supernatant was collected and subjected to centrifugation at 42,000 RPM (160,000 Rcf; 50.2 Ti rotor) for 1 hour at 4° C. The supernatant was removed, and the pellets were suspended in 12 ml (final volume) cold 10 mM MOPS buffer, pH 7.0. The resuspended RPE membranes in 5 ml aliquots were homogenized in a glass-to-glass homogenizer (Fisher Scientific, catalog no. K885500-0021) to high homogeneity. Protein concentration was quantified using the BCA protein assay according to the manufacturer's protocol (Pierce, Rockford, Ill.). The homogenized RPE preparations were stored at −80° C.
Recombinant human apo cellular retinaldehyde-binding protein (CRALBP) was cloned and expressed according to standard methods in the molecular biology art (see Crabb et al., Protein Science 7:746-57 (1998); Crabb et al., J. Biol. Chem. 263:18688-92 (1988)). Briefly, total RNA was prepared from confluent ARPE19 cells (American Type Culture Collection, Manassas, Va.), cDNA was synthesized using an oligo(dT)12-18 primer, and then DNA encoding CRALBP was amplified by two sequential polymerase chain reactions (see Crabb et al., J. Biol. Chem. 263:18688-92 (1988); Intres, et al., J. Biol. Chem. 269:25411-18 (1994); GenBank Accession No. L34219.1). The PCR product was sub-cloned into pTrcHis2-TOPO TA vector according to the manufacturer's protocol (Invitrogen Inc., Carlsbad, Calif.; catalog no. K4400-01), and then the sequence was confirmed according to standard nucleotide sequencing techniques. Recombinant 6×His-tagged human CRALBP was expressed in One Shot TOP 10 chemically competent E. coli cells (Invitrogen), and the recombinant polypeptide was isolated from E. coli cell lysates by nickel affinity chromatography using nickel (Ni) Sepharose XK16-20 columns for HPLC (Amersham Bioscience, Pittsburgh, Pa.; catalog no. 17-5268-02). The purified 6×His-tagged human CRALBP was dialyzed against 10 mM bis-tris-Propane (BTP) and analyzed by SDS-PAGE. The molecular weight of the recombinant human CRALBP was approximately 39 kDal.
Alkkynyl phenyl-linked amine derivative compounds and control compounds were reconstituted in ethanol to 0.1 M. Ten-fold serial dilutions (10^−2, 10^−3, 10^−4, 10^−5, 10^−6 M) in ethanol of each compound were prepared for analysis in the isomerase assay.
The isomerase assay was performed in 10 mM bis-tris-propane (BTP) buffer, pH 7.5, 0.5% BSA (diluted in BTP buffer), 1 mM sodium pyrophosphate, 20 μM all-trans retinol (in ethanol), and 6 μM apo-CRALBP. The test compounds (2 μl) (final […] dilution of serial dilution stocks) were added to the above reaction mixture to which RPE microsomes were added. The same volume of ethanol was added to the control reaction (absence of test compound). Bovine RPE microsomes (9 μl) (see above) were then added, and the mixtures transferred to 37° C. to initiate the reaction (total volume=150 μl). The reactions were stopped after 30 minutes by adding methanol (300 μl). Heptane was added (300 μl) and mixed into the reaction mixture by pipetting. Retinoid was extracted by agitating the reaction mixtures, followed by centrifugation in a microcentrifuge. […]

| SMILES | IC50 [µM] |
| --- | --- |
| NCCOc1cccc(C#CCc2ccccc2)c1 [Example 75, 2-(3-(3-phenylprop-1-ynyl)phenoxy)ethanamine] | ≤ 1 |
| NCCOc1cccc(C#CCCO)c1 [Example 76, 4-(3-(2-Aminoethoxy)phenyl)but-3-yn-1-ol] | ≤ 100 |
| CCCCCC#Cc1cccc(OCCN)c1 [Example 77, 2-(3-(hept-1-ynyl)phenoxy)ethanamine] | ≤ 1 |
| NCCCc1cccc(C#Cc2cccc3ccccc23)c1 [Example 82, 3-(3-(Naphthalen-1-ylethynyl)phenyl)propan-1-amine] | ≤ 100 |
| Cc1ccccc1C#Cc1cccc(CCCN)c1 [Example 83, 3-(3-(o-Tolylethynyl)phenyl)propan-1-amine] | ≤ 10 |
| Cc1ccc(C#Cc2cccc(CCCN)c2)cc1 [Example 84, 3-(3-(p-Tolylethynyl)phenyl)propan-1-amine] | ≤ 100 |
| NCCOc1cccc(C#CCC2CCCC2)c1 [Example 85, 2-(3-(3-Cyclopentylprop-1-ynyl)phenoxy)ethanamine] | ≤ 1 |
| NCCOc1cccc(C#CCCc2ccccc2)c1 [Example 86, 2-(3-(4-Phenylbut-1-ynyl)phenoxy)ethanamine] | ≤ 1 |
| Cc1cccc(C#Cc2cccc(CCCN)c2)c1 [Example 87, 3-(3-(m-Tolylethynyl)phenyl)propan-1-amine] | ≤ 100 |
| N#Cc1cccc(C#Cc2cccc(OCCN)c2)c1 [Example 88, 3-((3-(2-Aminoethoxy)phenyl)ethynyl)benzonitrile] | ≤ 10 |
| NCCCc1cccc(C#Cc2ccccc2O)c1 [Example 89, 2-((3-(3-Aminopropyl)phenyl)ethynyl)phenol] | ≤ 10 |
| N#Cc1cccc(C#Cc2cccc(CCCN)c2)c1 [Example 90, 3-((3-(3-Aminopropyl)phenyl)ethynyl)benzonitrile] | ≤ 10 |
| COc1ccccc1C#Cc1cccc(OCCN)c1 [Example 91, 2-(3-((2-Methoxyphenyl)Ethynyl)Phenoxy)Ethanamine] | ≤ 1 |
| NCCCc1cccc(C#Cc2cccc(C(F)(F)F)c2)c1 [Example 92, 3-(3-((3-(Trifluoromethyl)Phenyl)Ethynyl)Phenyl)Propan-1-Amine] | ≤ 100 |
| CC(C)(C)c1cc(C#Cc2cccc(CCCN)c2)cc(C(C)(C)C)c1 [Example 93, 3-(3-((3,5-Di-tert-butylphenyl)ethynyl)phenyl)propan-1-amine] | ≤ 1000 |
| CSc1ccc(C#Cc2cccc(CCCN)c2)cc1 [Example 94, 3-(3-((4-(Methylthio)phenyl)ethynyl)phenyl)propan-1-amine] | ≤ 100 |
| NCCOc1cccc(C#Cc2cccs2)c1 [Example 95, 2-(3-(Thiophen-2-ylethynyl)phenoxy)ethanamine] | ≤ 1 |
| NCCOc1cccc(C#Cc2ccsc2)c1 [Example 96, 2-(3-(Thiophen-3-ylethynyl)phenoxy)ethanamine] | ≤ 10 |
| NCCOc1cccc(C#Cc2ccncc2)c1 [Example 97, 2-(3-(Pyridin-4-ylethynyl)phenoxy)ethanamine] | ≤ 10 |
| NCCOc1cccc(C#Cc2ccccn2)c1 [Example 98, 2-(3-(Pyridin-2-ylethynyl)phenoxy)ethanamine] | ≤ 10 |
| CCCCCC#Cc1cccc(CCCN)c1 [Example 102, 3-(3-(Hept-1-ynyl)phenyl)propan-1-amine] | ≤ 1 |
| CCCC(O)(C#Cc1cccc(CCN)c1)CCC [Example 141, 4-((3-(2-Aminoethyl)phenyl)ethynyl)heptan-4-ol] | ≤ 1 |

System: retinoid nuclear receptors (RAR and RXR)
Test: Retinoid nuclear receptor activity, RAR and RXR together
Type: cell-based
Settings: reference agonists

| SMILES | activation of the RXRα, RARα, RARβ and RARγ receptors |
| --- | --- |
| C/C(=C\c1ccc(C(=O)O)cc1)c1ccc2c(c1)C(C)(C)CCC2(C)C [TTNPB, E-4-[2-(5,6,7,8-tetrahydro-5,5,8,8-tetramethyl-2-naphthylenyl)-1-propenyl]benzoic acid] | activated |
| CC1=C(/C=C/C(C)=C/C=C/C(C)=C/C(=O)O)C(C)(C)CCC1 [at-RA, all-trans-retinoic acid] | activated |
